Test results taken from patent US20110281947A1, “METHODS OF ADMINISTERING DICLOFENAC COMPOSITIONS FOR TREATING PHOTODAMAGED SKIN” (priority 2004, published 2011).

Test: Topical application of NSAID with hyaluronic acid to patients: side effects and pain relief
Format: in vivo, human
Details: for relief of pain: patients using combination with hyaluronic acid (sodium hyaluronate)
Excerpt: (This may be in part because of the clearing of the hyaluronic acid through the lymphatic system from the site).

Structure (SMILES)	relief of pain	major toxic side effects (gastro-intestinal distress, neurological abnormalities, depression) (dissolved in n-methyl glucamine, applied topically with hyaluronic acid, even at elevated amounts)
O=C(O)Cc1ccccc1Nc1c(Cl)cccc1Cl [diclofenac, Ortho-((2,6-dichlorophenyl)amino)phenylacetic acid]	dramatic relief of pain immediately	–
COc1ccc2c(c1)c(CC(=O)O)c(C)n2C(=O)c1ccc(Cl)cc1 [indomethacin]	dramatic relief of pain immediately	no major toxic side effects occur
